The structures appear in SMILES notation. Converted amounts (≈) assume the structure as drawn.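 Five concentrations, 48 hours, 96-well plates. Abbreviation: GI50, concentration required for 50% inhibition of growth. At the TGI there is no net growth.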 Where only a bound is given, the exact number is not on record here.

Some test systems named below: COLO 205 colon; HOP-92 NSCLC; K-562 leukemia; M14 melanoma; MDA-MB-231 breast; MOLT-4 leukemia; SK-MEL-28 melanoma; SK-OV-3 ovarian; U251 CNS; UACC-257 melanoma.
What all share (experiment): DTP human tumour cell line panel, 48 h

As for `O=C(CC(c1ccccc1)C1C(=O)NC(=S)NC1=O)c1ccc([N+](=O)[O-])cc1` (stereo not drawn), the TGI with COLO 205 colon, with HOP-92 NSCLC, in the test with K-562 leukemia, with M14 melanoma, in the test with MDA-MB-231 breast and with MOLT-4 leukemia was over 100 µM in each case. Besides, the TGI in the test with SK-MEL-28 melanoma, in the test with SK-OV-3 ovarian, in the test on U251 CNS and with UACC-257 melanoma was over 100 µM in each case.

For the molecule `C[N+]1(CCC(=O)c2ccccc2)CCC2CCC(C2)C1` (stereo not drawn), the TGI with COLO 205 colon, in the test with HOP-92 NSCLC, in the test on K-562 leukemia, in the test with M14 melanoma, in the test with MDA-MB-231 breast and in the test on MOLT-4 leukemia was over 100 µM throughout. Also, the TGI in the test with SK-MEL-28 melanoma, in the test with SK-OV-3 ovarian, with U251 CNS and in the test with UACC-257 melanoma was over 100 µM throughout.

Turning to `COC(=O)c1cc(NC(=O)c2cc(NC(=O)Cc3c[nH]c4ccccc34)cn2C)cn1C`, the TGI (commonly the concentration at which net growth stops) is 76.3 µM with COLO 205 colon; over 100 µM with K-562 leukemia; over 100 µM in the test with M14 melanoma; 77.1 µM in the test on MDA-MB-231 breast; over 100 µM in the test on MOLT-4 leukemia; over 100 µM in the test with SK-MEL-28 melanoma. In the test with SK-OV-3 ovarian, this molecule yielded a TGI of over 100 µM.

For the molecule `CCOCC(=O)N(C)c1cccc2c3c(n(C)c12)CCCCC3`, the concentration for total growth inhibition (TGI) with COLO 205 colon, with HOP-92 NSCLC, in the test on K-562 leukemia, in the test with MOLT-4 leukemia, with SK-MEL-28 melanoma and in the test with SK-OV-3 ovarian was over 100 µM throughout. In addition, the concentration for total growth inhibition (TGI) in the test with U251 CNS and in the test with UACC-257 melanoma was over 100 µM each time.

Turning to `CC1C(=O)c2cc3c(cc2CCN(C)Cc2c1ccc1c2OCO1)OCO3` (stereo not drawn), the GI50 – broadly, the concentration giving 50% growth inhibition – in the test with COLO 205 colon is 26.2 µg/mL (≈ 71.2 µM); with HOP-92 NSCLC, over 75 µg/mL; with K-562 leukemia, 24.7 µg/mL (≈ 67.3 µM); with M14 melanoma, 43.6 µg/mL (≈ 119 µM); with MDA-MB-231 breast, over 75 µg/mL; with MOLT-4 leukemia, 21.8 µg/mL (≈ 59.3 µM). Also, the GI50 with SK-MEL-28 melanoma was 30.9 µg/mL (≈ 84 µM); in the test with SK-OV-3 ovarian, over 75 µg/mL; with U251 CNS, 67.5 µg/mL (≈ 184 µM); in the test on UACC-257 melanoma, 36.1 µg/mL (≈ 98.2 µM). Further, the TGI with COLO 205 colon, with HOP-92 NSCLC, with K-562 leukemia, with M14 melanoma, in the test with MDA-MB-231 breast and with MOLT-4 leukemia was over 75 µg/mL throughout. For the same molecule, the concentration for total growth inhibition (TGI) in the test with SK-MEL-28 melanoma, in the test on SK-OV-3 ovarian, with U251 CNS and in the test with UACC-257 melanoma was over 75 µg/mL in each case.

As for `Cc1cc(C)c2c(=O)n(CC(O)CN3CCN(CCOCCO)CC3)sc2n1` (stereo not drawn), the total growth inhibition concentration (TGI) in the test on COLO 205 colon was 34.1 µM; with HOP-92 NSCLC it was 40.6 µM; with K-562 leukemia, over 100 µM; in the test on M14 melanoma it was 33.5 µM; in the test on MDA-MB-231 breast, 37.6 µM; with MOLT-4 leukemia, 73.5 µM. The concentration for total growth inhibition (TGI) in the test on SK-MEL-28 melanoma stood at 35.7 µM; in the test with SK-OV-3 ovarian, 60.7 µM; in the test on U251 CNS it was 36.3 µM; in the test with UACC-257 melanoma it was 24.6 µM.

Turning to `O=S(=O)(O)c1ccc2c(N=Nc3ccc(N=Nc4ccccc4)cc3)c(O)c(S(=O)(=O)O)cc2c1`, the concentration for total growth inhibition (TGI) in the test on COLO 205 colon, in the test on HOP-92 NSCLC, in the test on K-562 leukemia, in the test on M14 melanoma, in the test with MDA-MB-231 breast and with MOLT-4 leukemia was over 100 µM throughout. Further, the concentration for total growth inhibition (TGI) in the test with SK-MEL-28 melanoma, in the test on SK-OV-3 ovarian, in the test with U251 CNS and in the test on UACC-257 melanoma was over 100 µM in each case.

For `CC1=C[C@@H](C)C[C@]2(C)CC[C@H](O2)[C@]23CC[C@](CO)(C[C@H](O2)[C@@H]2O[C@@](C)(CC2=O)[C@@H](O)[C@H]2CC[C@@]4(CCC[C@@H](O4)[C@H](C)C(=O)O[C@H]4C[C@H]([C@]5(O)OCC[C@H](C)[C@@H]5O)O[C@H]4C=C1)O2)O3`, the concentration for total growth inhibition (TGI) was 0.00377 µM in the test on COLO 205 colon; 0.00697 µM in the test with HOP-92 NSCLC; over 10 µM in the test with K-562 leukemia; over 10 µM in the test with M14 melanoma; 0.217 µM in the test with MDA-MB-231 breast; over 10 µM in the test with MOLT-4 leukemia. The TGI turned out to be 0.0391 µM with SK-MEL-28 melanoma, 0.159 µM with SK-OV-3 ovarian and 0.438 µM in the test with U251 CNS.

Turning to `COc1ccc(-n2c3c(c4cc(O)ccc42)Cc2ccccc2C3=O)cc1`, the concentration for total growth inhibition (TGI) in the test on COLO 205 colon was 51 µM; in the test on K-562 leukemia it was over 100 µM; with M14 melanoma, over 100 µM; in the test on MDA-MB-231 breast it was over 100 µM; with MOLT-4 leukemia, over 100 µM; in the test on SK-MEL-28 melanoma it was over 100 µM. The concentration for total growth inhibition (TGI) is 57 µM in the test on SK-OV-3 ovarian, over 100 µM in the test with U251 CNS and over 100 µM with UACC-257 melanoma.

For `Nc1cc(S(=O)(=O)O)cc2ccc(S(=O)(=O)O)cc12`, the concentration for total growth inhibition (TGI) with COLO 205 colon, in the test on HOP-92 NSCLC, with K-562 leukemia, in the test on M14 melanoma, with MDA-MB-231 breast and with SK-MEL-28 melanoma was over 100 µM in each case. Besides, the TGI with SK-OV-3 ovarian, in the test with U251 CNS and in the test on UACC-257 melanoma was over 100 µM in each case.

Turning to `CC(=O)Nc1ccc(C(=O)NN2C(=O)C(Cl)C2c2cccc([N+](=O)[O-])c2)cc1` (stereo not drawn), the TGI in the test with COLO 205 colon, with HOP-92 NSCLC, in the test on K-562 leukemia, in the test on MOLT-4 leukemia, in the test on SK-MEL-28 melanoma and in the test on SK-OV-3 ovarian was over 100 µM throughout. Also, the TGI in the test with U251 CNS and with UACC-257 melanoma was over 100 µM in each case.

Take `Cn1c2[n+](c3nc(N)[nH]c(=O)c31)C1OC(C2)C(O)C1O` (stereo not drawn): the concentration for total growth inhibition (TGI) in the test on COLO 205 colon, in the test on HOP-92 NSCLC, with K-562 leukemia, in the test on M14 melanoma, with MOLT-4 leukemia and with SK-MEL-28 melanoma was over 100 µM in each case. The TGI in the test with SK-OV-3 ovarian, in the test on U251 CNS and with UACC-257 melanoma was over 100 µM throughout.

For `N=c1ccc2nc(N)nn(O)c-2c1`, the TGI with COLO 205 colon, with K-562 leukemia, in the test with M14 melanoma, in the test with MDA-MB-231 breast, in the test on MOLT-4 leukemia and with SK-MEL-28 melanoma was over 100 µM each time. Further, the TGI in the test on SK-OV-3 ovarian, with U251 CNS and in the test on UACC-257 melanoma was over 100 µM throughout.

The values are drawn from PubChem BioAssay (NCI).
